Measured values published in ChEMBL document CHEMBL4002643, “Tubulin-binding dibenz[c,e]oxepines: Part 2. Structural variation and biological evaluation as tumour vasculature disrupting agents” (Bioorg Med Chem, 2017).

Assays:
[1] = Inhibition of tubulin (unknown origin) assembly preincubated for 30 mins followed by GTP addition by spectrophotometric method; set-up: species or system Homo sapiens
[2] = system: DLD-1; assay: Induction of vascular shutdown in human DLD1 cells xenografted in Balb/C immunodeficient nude mouse at 400 mg/kg, iv by […] dye-based microscopic method; assay type: functional, organism-based; details: TDE = time-dependent effect
[3] = system: DLD-1; assay: Induction of vascular shutdown in human DLD1 cells xenografted in Balb/C immunodeficient nude mouse assessed as vascular element counts at 400 mg/kg, iv at 1 hr post dose by […] dye-based microscopic method (reference value: 3.73 +/- 3.1%); assay type: functional
[4] = system: DLD-1; assay: Induction of vascular shutdown in human DLD1 cells xenografted in Balb/C immunodeficient nude mouse assessed as vascular element counts at 400 mg/kg, iv at 4 hrs post dose by […] dye-based microscopic method (reference value: 3.73 +/- 3.1%); assay type: functional
[5] = system: DLD-1; assay: Induction of vascular shutdown in human DLD1 cells xenografted in Balb/C immunodeficient nude mouse assessed as vascular element counts at 400 mg/kg, iv at 24 hrs post dose by […] dye-based microscopic method (reference value: 3.73 +/- 3.1%); assay type: functional
[6] = system: DLD-1; assay: Vascular disrupting activity in human DLD1 cells xenografted in Balb/C immunodeficient nude mouse assessed as induction of necrosis by measuring necrotic area at 400 mg/kg, iv at 1 hr post dose by haematoxylin and eosin staining-based assay (reference value: 19 +/- 9.6%); assay type: functional
[7] = system: DLD-1; assay: Vascular disrupting activity in human DLD1 cells xenografted in Balb/C immunodeficient nude mouse assessed as induction of necrosis by measuring necrotic area at 400 mg/kg, iv at 4 hrs post dose by haematoxylin and eosin staining-based assay (reference value: 19 +/- 9.6%); assay type: functional
[8] = system: DLD-1; assay: Vascular disrupting activity in human DLD1 cells xenografted in Balb/C immunodeficient nude mouse assessed as induction of necrosis by measuring necrotic area at 400 mg/kg, iv at 24 hrs post dose by haematoxylin and eosin staining-based assay (reference value: 19 +/- 9.6%); assay type: functional
[9] = system: K562; assay: Cytotoxicity against human K562 cells assessed as growth inhibition after 5 days by MTT assay; assay type: functional, cell-based; details: K562, 120 h

Question: For COc1ccc2c(c1)[C@@H](NC(C)=O)CCc1cc(OC)c(OC)c(OC)c1-2, which IC50 [1] is on record?
Answer: 700 nM

Question: For COc1cc2c(c(OC)c1OC)-c1ccc(OP(=O)([O-])[O-])cc1[C@@H](NC(C)=O)CC2.[Na+].[Na+], which Activity [2] is on record?
Answer: Tde

Question: And the Activity [3]?
Answer: 0.03%

Question: And the Activity [4]?
Answer: 0.12%

Question: And the Activity [5]?
Answer: 0.42%

Question: And the Activity [6]?
Answer: 23.2%

Question: And the Activity [7]?
Answer: 22.3%

Question: What about the Activity [8] of the same compound?
Answer: 91%

Question: With COc1ccc(/C=C\c2cc(OC)c(OC)c(OC)c2)cc1O [COMBRETASTATIN A4] as the compound, how does the IC50 [9] read?
Answer: 1000 nM
